Target: recombinant human SAE enzyme (Homo sapiens (Human), UniProt Q9UBT2)
Experiment: SAE HTRF enzyme assay
Format: biochemical
Details: for inhibition at 0.111 µM: read-out: Percent Inhibition
Procedure, shortened: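 Enzyme reaction: 50 mM HEPES pH 7.5, 5 mM MgCl2, 250 μM GSH, 0.05% BSA, 0.5 μM ATP, 0.01 μM Ubc9-GST, 0.125 μM Sumo-Flag, 0.11 nM SAE; 105 min, 24° C. Stop/detect, 2 h, then HTRF. % inh or IC50.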

[1] = SAE inhibition at compound concentration 0.111 μM
[2] = SAE inhibition, class symbols, legend in nM

Sequence of recombinant human SAE enzyme (Q9UBT2 whole entry): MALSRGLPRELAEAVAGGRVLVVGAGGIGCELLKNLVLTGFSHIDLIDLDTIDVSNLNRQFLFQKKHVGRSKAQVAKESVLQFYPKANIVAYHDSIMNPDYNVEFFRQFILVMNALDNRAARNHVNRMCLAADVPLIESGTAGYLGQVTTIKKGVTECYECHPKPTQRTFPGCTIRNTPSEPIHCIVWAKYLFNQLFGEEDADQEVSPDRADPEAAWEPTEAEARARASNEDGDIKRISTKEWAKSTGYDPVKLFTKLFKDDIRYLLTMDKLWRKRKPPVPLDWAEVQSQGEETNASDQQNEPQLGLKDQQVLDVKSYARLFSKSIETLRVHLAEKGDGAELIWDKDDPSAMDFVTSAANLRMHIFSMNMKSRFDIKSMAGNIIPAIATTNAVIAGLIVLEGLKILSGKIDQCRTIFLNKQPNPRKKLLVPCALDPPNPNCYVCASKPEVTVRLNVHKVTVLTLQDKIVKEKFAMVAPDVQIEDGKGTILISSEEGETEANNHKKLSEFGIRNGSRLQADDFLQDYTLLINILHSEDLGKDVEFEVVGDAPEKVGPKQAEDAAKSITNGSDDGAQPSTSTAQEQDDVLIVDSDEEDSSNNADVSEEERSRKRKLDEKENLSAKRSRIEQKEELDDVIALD
Sequence of recombinant human SAE enzyme (Q9UBE0 whole entry partner): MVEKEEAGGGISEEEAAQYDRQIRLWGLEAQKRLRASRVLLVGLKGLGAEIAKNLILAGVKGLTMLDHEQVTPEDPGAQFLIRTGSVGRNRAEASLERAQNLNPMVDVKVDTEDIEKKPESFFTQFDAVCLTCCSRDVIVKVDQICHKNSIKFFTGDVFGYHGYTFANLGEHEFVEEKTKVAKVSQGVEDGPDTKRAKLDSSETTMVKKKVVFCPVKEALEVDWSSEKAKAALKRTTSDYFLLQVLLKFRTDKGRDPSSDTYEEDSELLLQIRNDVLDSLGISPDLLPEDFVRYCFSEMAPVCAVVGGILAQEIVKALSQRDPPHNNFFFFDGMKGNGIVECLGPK

Q: Which inhibition at 0.111 µM (Concentration 0.111 μM) does the source give for C=C(c1cccc(Br)c1)c1csc(C(=O)c2cncnc2N[C@@H]2C[C@H](COS(N)(=O)=O)[C@@H](O)C2)c1 [I-164, [(1R,2S,4R)-4-{[5-({4-[1-(3-Bromophenyl)vinyl]-2-thienyl}carbonyl)pyrimidin-4-yl]amino)-2-hydroxycyclopentyl]methyl sulfamate] here?
A: The inhibition at 0.111 µM was 92%.

Q: And the IC50 (class symbols A/B/C)?
A: The IC50 was 10 to 100 nM.

Q: How did the “Percent Inhibition” value (Concentration 0.111 μM) turn out when CN1CCC[C@]1(c1cccc(Cl)c1)c1csc(C(=O)c2cncnc2N[C@@H]2C[C@H](COS(N)(=O)=O)[C@@H](O)C2)c1 (mixture of isomers) [I-227, [(1R,2S,4R)-4-{[5-({4-[(2S)-2-(3-chlorophenyl)-1-methylpyrrolidin-2-yl]-2-thienyl}carbonyl)pyrimidin-4-yl]amino}-2-hydroxycyclopentyl]methyl sulfamate and [(1R,2S,4R)-4-{[5-({4-[(2R)-2-(3-chlorophenyl)-1-methylpyrrolidin-2-yl]-2-thienyl}carbonyl)pyrimidin-4-yl]amino}-2-hydroxycyclopentyl]methyl sulfamate] was run?
A: Its value is 23.

Q: What about the IC50 (class symbols A/B/C) of the same molecule?
A: The IC50 was 100 to 1000 nM.

Q: Which results are given for CC(O)(c1cccc(Cl)c1)c1ccc(C(=O)c2cncnc2NC2CC(O)C(COS(N)(=O)=O)C2)s1 (mixture of isomers) [I-152, [(1R,2S,4R)-4-{[5-({5-[(1R)-1-(3-chlorophenyl)-1-hydroxyethyl]-2-thienyl}carbonyl)pyrimidin-4-yl]amino}-2-hydroxycyclopentyl]methyl sulfamate and [(1R,2S,4R)-4-{[5-({5-[(1S)-1-(3-chlorophenyl)-1-hydroxyethyl]-2-thienyl}carbonyl)pyrimidin-4-yl]amino}-2-hydroxycyclopentyl]methyl sulfamate]?
A: Percent Inhibition (Concentration 0.111 μM): 93; IC50 (class symbols A/B/C): < 10 nM

Q: Which results are given for NS(=O)(=O)OC[C@H]1C[C@@H](Nc2ncncc2C(=O)c2cc(CN3CC=CCC3)cs2)C[C@@H]1O [I-204, {(1R,2S,4R)-4-[(5-{[4-(3,6-dihydropyridin-1(2H)-ylmethyl)-2-thienyl]carbonyl}pyrimidin-4-yl)amino]-2-hydroxycyclopentyl}methyl sulfamate]?
A: inhibition at 0.111 µM (Concentration 0.111 μM): 52%; IC50 (class symbols A/B/C): 10 to 100 nM

Q: What does the source list for CC(O)(c1cccc(Cl)c1)c1cc(C(=O)c2cncnc2N[C@@H]2C[C@H](COS(N)(=O)=O)[C@@H](O)C2)sc1Cl (single isomer, unassigned) [I-102b, [(1R,2S,4R)-4-{[5-({5-chloro-4-[(1R)-1-(3-chlorophenyl)-1-hydroxyethyl]-2-thienyl}carbonyl)pyrimidin-4-yl]amino}-2-hydroxycyclopentyl]methyl sulfamate or [(1R,2S,4R)-4-{[5-({5-chloro-4-[(1S)-1-(3-chlorophenyl)-1-hydroxyethyl]-2-thienyl}carbonyl)pyrimidin-4-yl]amino}-2-hydroxycyclopentyl]methyl sulfamate]?
A: Percent Inhibition (Concentration 0.111 μM): 97; IC50 (class symbols A/B/C): < 10 nM

Q: Which results are given for NS(=O)(=O)OC[C@H]1C[C@@H](Nc2ncncc2C(=O)c2cc(CSc3ccccc3)cs2)C[C@@H]1O [I-177, [(1R,2S,4R)-2-hydroxy-4-{[5-({4-[(phenylsulfanyl)methyl]-2-thienyl}carbonyl)pyrimidin-4-yl]amino}cyclopentyl]methyl sulfamate]?
A: inhibition at 0.111 µM (Concentration 0.111 μM): 85%; IC50 (class symbols A/B/C): 10 to 100 nM

Q: NS(=O)(=O)OC[C@H]1C[C@@H](Nc2ncncc2C(=O)c2ccc(Cc3ccccc3)o2)[C@H](O)[C@@H]1O [I-87, [(1R,2R,3S,4R)-4-{[5-(5-benzyl-2-furoyl)pyrimidin-4-yl]amino}-2,3-dihydroxycyclopentyl]methyl sulfamate] was tested. Which inhibition at 0.111 µM (Concentration 0.111 μM) did it give?
A: Its inhibition at 0.111 µM is 94%.

Q: NS(=O)(=O)OC[C@H]1C[C@@H](Nc2ncncc2C(=O)c2cc([C@@H]3OCCc4cccnc43)c(Cl)s2)C[C@@H]1O (single isomer, unassigned) [I-266b, [(1R,2S,4R)-4-{[5-({5-chloro-4-[(8S)-5,8-dihydro-6H-pyrano[3,4-b]pyridin-8-yl]-2-thienyl}carbonyl)pyrimidin-4-yl]amino}-2-hydroxycyclopentyl]methyl sulfamate or [(1R,2S,4R)-4-{[5-({5-chloro-4-[(8R)-5,8-dihydro-6H-pyrano[3,4-b]pyridin-8-yl]-2-thienyl}carbonyl)pyrimidin-4-yl]amino}-2-hydroxycyclopentyl]methyl sulfamate] was tested. Which “Percent Inhibition” value (Concentration 0.111 μM) did it give?
A: The value was 100.

Q: What about the IC50 (class symbols A/B/C) of the same molecule?
A: The IC50 was < 10 nM.

Q: What does the source list for NS(=O)(=O)OC[C@H]1C[C@@H](Nc2ncncc2C(=O)c2cc([C@@H]3OCCc4ccc(F)cc43)c(Cl)s2)C[C@@H]1O (single isomer, unassigned) [I-294b, [(1R,2S,4R)-4-{[5-({5-chloro-4-[(1R)-7-fluoro-3,4-dihydro-1H-isochromen-1-yl]-2-thienyl}carbonyl)pyrimidin-4-yl]amino}-2-hydroxycyclopentyl]methyl sulfamate or [(1R,2S,4R)-4-{[5-({5-chloro-4-[(1S)-7-fluoro-3,4-dihydro-1H-isochromen-1-yl]-2-thienyl}carbonyl)pyrimidin-4-yl]amino}-2-hydroxycyclopentyl]methyl sulfamate]?
A: Percent Inhibition [1]: 98%; IC50 [2]: < 10 nM

Q: Which results are given for COc1ccc2c(c1)[C@H](c1cc(C(=O)c3cncnc3N[C@@H]3C[C@H](COS(N)(=O)=O)[C@@H](O)C3)sc1C)OCC2 (mixture of isomers) [I-341, [(1R,2S,4R)-2-hydroxy-4-{[5-({4-[(1R)-7-methoxy-3,4-dihydro-1H-isochromen-1-yl]-5-methyl-2-thienyl}carbonyl)pyrimidin-4-yl]amino}cyclopentyl]methyl sulfamate and [(1R,2S,4R)-2-hydroxy-4-{[5-({4-[(1S)-7-methoxy-3,4-dihydro-1H-isochromen-1-yl]-5-methyl-2-thienyl}carbonyl)pyrimidin-4-yl]amino}cyclopentyl]methyl sulfamate]?
A: Percent Inhibition [1]: 10%; IC50 [2]: 100 to 1000 nM

Q: What does the source list for Cc1sc(C(=O)c2cncnc2N[C@@H]2C[C@H](COS(N)(=O)=O)[C@@H](O)C2)cc1[C@H](C)c1cccc(Cl)c1 (mixture of isomers) [I-135, [(1R,2S,4R)-4-{[5-({4-[(1R)-1-(3-chlorophenyl)ethyl]-5-methyl-2-thienyl}carbonyl)pyrimidin-4-yl]amino}-2-hydroxycyclopentyl]methyl sulfamate and [(1R,2S,4R)-4-{[5-({4-[(1S)-1-(3-chlorophenyl)ethyl]-5-methyl-2-thienyl}carbonyl)pyrimidin-4-yl]amino}-2-hydroxycyclopentyl]methyl sulfamate]?
A: Percent Inhibition (Concentration 0.111 μM): 94; IC50 (class symbols A/B/C): 10 to 100 nM

Q: What does the source list for CN1CCc2ccc(Cl)cc2[C@@H]1c1cc(C(=O)c2cncnc2N[C@@H]2C[C@H](COS(N)(=O)=O)[C@@H](O)C2)sc1Cl (single isomer, unassigned) [I-311a, [(1R,2S,4R)-4-{[5-({5-chloro-4-[(1R)-7-chloro-2-methyl-1,2,3,4-tetrahydroisoquinolin-1-yl]-2-thienyl}carbonyl)pyrimidin-4-yl]amino}-2-hydroxycyclopentyl]methyl sulfamate or [(1R,2S,4R)-4-{[5-({5-chloro-4-[(1S)-7-chloro-2-methyl-1,2,3,4-tetrahydroisoquinolin-1-yl]-2-thienyl}carbonyl)pyrimidin-4-yl]amino}-2-hydroxycyclopentyl]methyl sulfamate]?
A: Percent Inhibition [1]: 65%; IC50 [2]: 10 to 100 nM

Q: Which results are given for NS(=O)(=O)OC[C@H]1C[C@@H](Nc2ncncc2C(=O)c2cc([C@@]3(c4cccc(Cl)c4)CCCN3)cs2)C[C@@H]1O (single isomer, unassigned) [I-38b, [(1R,2S,4R)-4-{[5-({4-[(2S)-2-(3-chlorophenyl)pyrrolidin-2-yl]-2-thienyl}carbonyl)pyrimidin-4-yl]amino}-2-hydroxycyclopentyl]methyl sulfamate or [(1R,2S,4R)-4-{[5-({4-[(2R)-2-(3-chlorophenyl)pyrrolidin-2-yl]-2-thienyl}carbonyl)pyrimidin-4-yl]amino}-2-hydroxycyclopentyl]methyl sulfamate]?
A: Percent Inhibition (Concentration 0.111 μM): 98; IC50 (class symbols A/B/C): < 10 nM

Q: What does the source list for NS(=O)(=O)OC[C@H]1C[C@@H](Nc2ncncc2C(=O)c2cc(Cc3cccc(Cl)c3)c(CC3CCOCC3)s2)C[C@@H]1O [I-110, {(1R,2S,4R)-4-[(5-{[4-(3-chlorobenzyl)-5-(tetrahydro-2H-pyran-4-ylmethyl)-2-thienyl]carbonyl}pyrimidin-4-yl)amino]-2-hydroxycyclopentyl}methyl sulfamate]?
A: inhibition at 0.111 µM (Concentration 0.111 μM): 98%; IC50 (class symbols A/B/C): < 10 nM

Q: With NS(=O)(=O)OC[C@H]1C[C@@H](Nc2ncncc2C(=O)c2cc(Cc3cccc(F)c3)cs2)C[C@@H]1O [I-97, {(1R,2S,4R)-4-[(5-{[4-(3-fluorobenzyl)-2-thienyl]carbonyl}pyrimidin-4-yl)amino]-2-hydroxycyclopentyl}methyl sulfamate] as the molecule, how does the inhibition at 0.111 µM (Concentration 0.111 μM) read?
A: Its inhibition at 0.111 µM is 97%.

Q: For NS(=O)(=O)OC[C@H]1C[C@@H](Nc2ncncc2C(=O)c2cc(Cc3ccc(F)c(Cl)c3)cs2)C[C@@H]1O [I-61, {(1R,2S,4R)-4-[(5-{[4-(3-chloro-4-fluorobenzyl)-2-thienyl]carbonyl}pyrimidin-4-yl)amino]-2-hydroxycyclopentyl}methyl sulfamate], which inhibition at 0.111 µM (Concentration 0.111 μM) is on record?
A: Its inhibition at 0.111 µM is 98%.

Q: What about the IC50 (class symbols A/B/C) of the same molecule?
A: Its IC50 is < 10 nM.

Q: For NS(=O)(=O)OC[C@H]1C[C@@H](Nc2ncncc2C(=O)c2cc([C@H](O)c3cccc(Cl)c3)cs2)C[C@@H]1O (single isomer, unassigned) [I-4a, [(1R,2S,4R)-4-{[5-({4-[(R)-(3-chlorophenyl)(hydroxy)methyl]-2-thienyl}carbonyl)pyrimidin-4-yl]amino}-2-hydroxycyclopentyl]methyl sulfamate or [(1R,2S,4R)-4-{[5-({4-[(S)-(3-chlorophenyl)(hydroxy)methyl]-2-thienyl}carbonyl)pyrimidin-4-yl]amino}-2-hydroxycyclopentyl]methyl sulfamate], which “Percent Inhibition” value (Concentration 0.111 μM) is on record?
A: The value was 99.

Q: What about the IC50 (class symbols A/B/C) of the same molecule?
A: The IC50 was < 10 nM.

— patent US10780090B2, “Heteroaryl compounds useful as inhibitors of SUMO activating enzyme” (Millennium Pharmaceuticals, Inc., priority 2014, dated 2020)
